Experimental findings from ChEMBL document CHEMBL1144719, “1-(1-Arylethylidene)thiosemicarbazide derivatives: a new class of tyrosinase inhibitors” (Bioorg Med Chem, 2008) are described below.

For the first assay, the target named is T1, Tyrosinase (Agaricus bisporus, UniProt O42713).
T1 sequence (O42713 whole entry): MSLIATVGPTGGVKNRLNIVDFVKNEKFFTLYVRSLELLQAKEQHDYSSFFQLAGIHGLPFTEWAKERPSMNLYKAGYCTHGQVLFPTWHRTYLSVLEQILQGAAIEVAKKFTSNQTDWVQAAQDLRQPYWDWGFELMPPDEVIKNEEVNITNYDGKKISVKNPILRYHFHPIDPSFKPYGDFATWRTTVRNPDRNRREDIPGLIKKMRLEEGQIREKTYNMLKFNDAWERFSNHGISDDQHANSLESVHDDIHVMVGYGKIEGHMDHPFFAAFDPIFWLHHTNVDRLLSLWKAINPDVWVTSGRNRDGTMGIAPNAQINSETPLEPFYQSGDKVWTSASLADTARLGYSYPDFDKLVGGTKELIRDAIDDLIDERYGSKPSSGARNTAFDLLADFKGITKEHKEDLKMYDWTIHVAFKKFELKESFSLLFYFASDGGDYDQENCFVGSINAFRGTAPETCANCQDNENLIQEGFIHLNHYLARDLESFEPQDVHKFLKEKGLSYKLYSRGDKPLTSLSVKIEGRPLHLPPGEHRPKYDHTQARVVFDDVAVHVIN
Usually IC50 stands for the concentration that inhibits the measured activity by half. Higher therefore signals lower potency. As for `C/C(=N/NC(N)=S)c1ccc(C)cc1`, the 50% inhibitory concentration (IC50) turned out to be 0.27 µM. Still for that read-out and setting: for `CC(=O)c1ccc(F)cc1` the value was 990 µM. In turn, `C/C(=N/NC(N)=S)c1ccccc1` [ACETOPHENONE-THIOSEMICARBAZONE] showed a half-inhibitory concentration (IC50) of 0.34 µM.

Molecule `C/C(=N/NC(N)=S)c1cnccn1` showed an IC50 of 0.88 µM. Still for that read-out and setting: for `C/C(=N/NC(N)=S)c1cccs1` the value was 0.14 µM; for `NC(=S)N/N=C(/C(=O)c1ccccc1)c1ccccc1`, 100 µM. `COc1ccc(C/C(C)=N\NC(N)=S)cc1` displayed an IC50 of 0.42 µM. In turn, `C/C(=N/NC(N)=S)c1ccc(C(C)C)cc1` yielded an IC50 of 1 µM.

Molecule `C/C(=N/NC(N)=S)c1ccc(/C(C)=N\NC(N)=S)cc1` had an IC50 of 0.15 µM.

Molecule `C/C(=N/NC(N)=S)c1ccc(F)cc1` came in with an IC50 of 0.17 µM. Regarding `C/C(=N/NC(N)=S)c1ccc(Br)cc1`, the IC50 was 0.52 µM.

Molecule `C/C(=N/NC(N)=S)c1ccc(O)cc1O` returned an IC50 of 0.58 µM. `NC(=S)N/N=C(\c1ccccc1)C(O)c1ccccc1` (stereo unspecified): inhibition was half-maximal at 55.5 µM (IC50).

The molecule `C/C(=N/NC(N)=S)c1cccnc1` had an IC50 of 0.82 µM. Molecule `CC(=O)c1ccccc1` [ACETOPHENONE] displayed an IC50 of 850 µM.

Molecule `O=c1cccccc1O` [TROPOLONE] yielded a half-inhibitory concentration (IC50) of 0.4 µM. `C/C(=N/NC(N)=S)c1ccc(O)cc1`: the half-maximal inhibitory concentration (IC50) turned out to be 0.31 µM. As for `COc1ccc(/C(C)=N\NC(N)=S)cc1`, the IC50 was 0.11 µM.

Molecule `COc1ccc(C(C)=O)cc1` [P-METHOXY-ACETOPHENONE] registered an IC50 of 2000 µM. The same measure, in the same setting: for `COc1ccc(/C=C/C(=O)O)cc1` [4-METHOXYCINNAMIC ACID] the value was 410 µM. As for `C/C(CCc1ccc(O)cc1)=N/NC(N)=S`, inhibition was half-maximal at 0.54 µM (IC50). Still for that read-out and setting: next, `NNC(N)=S` [THIOSEMICARBAZIDE]: 2000 µM; `C/C(=N/NC(N)=S)c1c(O)cc(O)cc1O`: 22 µM.

The next assay concerns the target T2, Tyrosinase (Agaricus bisporus) (UniProt O42713).
T2 sequence (whole entry): T1 sequence (O42713 whole entry)
Kind of assay: Inhibition of mushroom tyrosinase at 0.10 mM.
One may read the inhibition as the percentage by which the read-out fell short of the control. Low readings indicate a weak effect, high ones a strong effect. `NC(=S)N/N=C(/C(=O)c1ccccc1)c1ccccc1` came in with an inhibition of 47%.

The target in the next assay is T2, Tyrosinase (Agaricus bisporus). Briefly: Inhibition of mushroom tyrosinase at 2 mM.
With `COc1ccc(C(C)=O)cc1` [P-METHOXY-ACETOPHENONE], the inhibition turned out to be 47.2%. With `NNC(N)=S` [THIOSEMICARBAZIDE], the inhibition worked out at 39.9%.
